In general, EC50 refers to the concentration at which the effect is half-maximal. As usually defined, the CC50 is the concentration giving 50% cytotoxicity. Higher therefore signals better tolerance by the cells.

SMILES strings stand for the structures. Entries after “also recorded” stand apart in the source; their conditions may differ. Where only a bound is given, the exact number is not on record here.

From PMC3578765 (PLoS Neglected Tropical Diseases, 2013) come the findings set out here.

The subject of data set [1] is DENV2 (BR DEN2 01-01) infection in Huh-7.5. Briefly: image-based dengue HT/HCA, 10-pt dose-response hit confirmation, DENV2. In kind it is cell-based. The note with it: Dengue virus, DENV2, Huh7.5; Huh-7.5, M.O.I. 0.5, 96 hrs; read-out: EC50 DENV2. Here is the method: (§1) An immunofluorescence assay (IFA) used to detect dengue infection was optimized for the dengue HT/HCA. Briefly, cells were fixed with 4% (w/v) paraformaldehyde (PFA) for 20 min at room temperature (Rm T). PFA-fixed cells were treated with 0.25% (v/v) Triton-X for 20 min at Rm T. DENV-infected cells were detected by probing with 4G2 mAb prepared in blocking buffer: DPBS containing 5% FBS for 30 min at 37°C, followed by AlexaFluor-conjugated goat anti-mouse IgG (H+L) (Invitrogen Molecular Probes, USA) prepared in blocking buffer for 30 min at 37°C. Cell nuclei counterstained with 5 µg/mL 4′,6-diamidino-2-phenylindole (DAPI, Sigma-Aldrich, USA). Two washing cycles of DPBS was done after each step of the IFA. After the final washing, digital images were acquired using a high-throughput confocal fluorescence imaging system (Evotec Technologies High-Throughput Cell Analyzer Opera, Perkin Elmer, USA). The digital images were taken from 3 different fields of each well at 20× magnification.
(§2) Acquired images were analyzed using our in-house developed image-mining platform (IM). This platform is designed to do high-content screening and directly access the database of images that were sequentially analyzed with specially designed algorithms developed as a customized plug-in to the IM platform. The results of all the analyses were stored in a centralized database. […] One channel (DAPI-channel) captures the signal emitted by DAPI-stained nuclei at 450 nm, while the other channel (A488-channel) captures the signal emitted by the AlexaFluor 488 dye bound to the dengue E protein-antibody complexes confined in the cytoplasm of dengue-infected cells at 540 nm. To define the percentage of dengue-infected cells and, conversely the non-infected cells, a modified watershed method was applied. Compared to the original watershed algorithm that uses the morphological gradient image, a weighted gradient image is used for the topographic surface, whose weights are defined as the ridge values computed from the eigen values of the original image. The percentage of non-infected cells, which is also defined as the percent inhibition or percent activity, is derived by using the formula: [1−(A488-positive cells/total cells)]×100%.
(§3) The BioFocus kinase inhibitor library were screened against DENV1, DEN2, DENV3 and DENV4 at 10 µM in 0.5% (v/v) DMSO. MOCK-infected Huh-7.5 and IFN-α2A (500 U/mL) were used as positive controls, and the 0.5% DMSO vehicle was used as negative control. Four sets of 15 384-well plates (13 plates designated for test compounds and 2 plates designated for DMSO vehicle control) were used for the primary screening of the BioFocus kinase inhibitor library against each dengue serotype. Each of the 4,000 compounds in the library was tested in single wells. For data normalization and quality control of the screening, each test compound plate contained 16 replicates of the positive and negative controls. After dispensing the test compounds IFN-α2A and DMSO vehicle in the 384-well plates, Huh-7.5 was mixed with DENV1, DENV2, DENV3, or DENV4 to achieve a M.O.I. of 0.5 and dispensed at 5×10^3 cells/well using the Thermo Scientific WellMate automated liquid dispenser. For the MOCK-infected Huh-7.5, the cells were mixed with VM and dispensed under the same conditions as previously stated. Virus infection in the presence of the compounds proceeded at 37°C, 5% CO2 for 96 hrs. Compound activity based on percent inhibition and cell toxicity was assessed by IFA and IM analysis as described above. Scatter-plot distribution of the entire screening was generated using TIBCO Spotfire 4.5.0 (TIBCO Software Inc., Somerville, MA).
(§4) The calculated activity was normalized to a percent inhibition (PI) based on the MOCK-infected cells (100% activity, or zero infection) and dengue-infected cells (0% activity, or maximum measured infection percentage) controls according to the formula: [drawing 1] where: PImeasured - percent inhibition of test compound […]

Data set [2] relates to DENV4 (DEN4 TVP-360) infection in Huh-7.5. Put plainly: image-based dengue HT/HCA, 10-pt dose-response hit confirmation, DENV4. In kind it is cell-based. The note with it: Dengue virus, DENV4, Huh7.5; Huh-7.5, M.O.I. 0.5, 96 hrs; read-out: EC50 DENV4. As to the method: as §1, §2, §3, §4
Data set [3] deals with DENV1, DENV2, DENV3 and DENV4 infection in Huh-7.5. Briefly: image-based dengue HT/HCA, all four serotypes (primary screening and overall activity). The class given is cell-based, Dengue virus. Here is the method:
as §1
Acquired images were analyzed using our in-house developed image-mining platform (IM). This platform is designed to do high-content screening and directly access the database of images that were sequentially analyzed with specially designed algorithms developed as a customized plug-in to the IM platform. The results of all the analyses were stored in a centralized database. […]
The BioFocus kinase inhibitor library were screened against DENV1, DEN2, DENV3 and DENV4 at 10 µM in 0.5% (v/v) DMSO. […] Compound activity based on percent inhibition and cell toxicity was assessed by IFA and IM analysis as described above. […]
as §4

Data set [4] can be described thus: compound toxicity, resazurin reduction assay in uninfected Huh-7.5. In kind it is cell-based. Conditions: human, uninfected Huh-7.5 cells, Huh-7.5 without viral infection, 10-pt DRC. Here is the method: The hits identified from the primary screening were also tested at 10 µM against CHIKV-118-GFP infection in HuH-7 cells and evaluated by resazurin reduction assay (RRA). Resazurin (7-Hydroxy-3H-phenoxazin-3-one 10-oxide) is reduced to the red fluorescent resorufin by redox enzymes produced by viable cells, and is a good indication of metabolic capacity, and by extension cell viability. The amount of converted resorufin was measured as relative fluorescence readout (RFU) at excitation/emission of 531/572 nm using a fluorescence spectrophotometer (Victor^3 V Spectrophotometer, Perkin Elmer, USA). Briefly, cells were inoculated with CHIKV-118-GFP at an M.O.I. of 0.5 and seeded in 384-well plates containing reference and primary hit compounds and incubated under humidified conditions for 72 hrs at 37°C. Resazurin solution was added to a final concentration of 10 µM and further incubated for another 12 hrs prior to measurement of RFU. The percent activity of the compounds, reflected by the percent cell viability, was quantified by normalizing against the RFUs of MOCK-infected cells and CHIKV-118-GFP-infected cells. Compounds resulting in normalized RFU ≥70% were considered as positive hits for anti-CHIKV activity.
To confirm the compound activity against dengue viruses, the selected hits from the primary screening were tested in a 10-pt. DRC (2-fold serial dilution from 50 µM) using the same assay described for the dengue HT/HCA. Each concentration of the hit compounds was tested in duplicate wells. Data generated from image analysis of the 10-pt. DRC was plotted and analyzed using the non-linear regression formula: log (inhibitor) vs. response – […] (4 parameters) in GraphPad Prism 5.04. […] Compound toxicity was determined by testing the hit compounds in a 10-pt. DRC against Huh-7.5 in the absence of viral infection and measuring the cell viability using resazurin reduction assay as described above. […] Confirmed hits were selected based on their Selectivity Index (SI), a dimensionless value that indicates the magnitude between cytotoxic concentration and effective concentration, and is calculated as: SI = CC50/EC50.
Background: Resazurin is reduced to fluorescent resorufin, in cell work by metabolically active cells.

For data set [5], the system named is DENV1, DENV2, DENV3 and DENV4 in Huh-7.5. Put plainly: plaque reduction assay. The class given is cell-based, Dengue virus. The note with it: 25 µM, Huh-7.5, 30 pfu per well, 7 days. Here is the method: Figure 5 Plaque reduction assay. Huh-7.5 cells grown in 24-well tissue culture plate were inoculated with 30 pfu DENV1, DENV2, DENV3 and DENV4 per well and incubated for 7 days in the presence of compound CND1203 at various concentrations. MOCK-infected wells were inoculated with VM only.

Data set [6] relates to DENV3 (BR DEN3 290-02) infection in Huh-7.5. Briefly: image-based dengue HT/HCA, 10-pt dose-response hit confirmation, DENV3. In kind it is cell-based. Conditions: Dengue virus, DENV3, Huh7.5; Huh-7.5, M.O.I. 0.5, 96 hrs; read-out: EC50 DENV3. As to the method: as §1, §2, §3, §4
Data set [7] has as its system dengue virus infection (M.O.I. 5) in Huh-7.5. Briefly: time-of-addition assay. The class given is cell-based. The note with it: 25 µM added at −2, 0, 0.5, 1, 2, 4 hpi, M.O.I. 5, data not shown. As to the method: Time-of-addition assay, a strategy to determine the stage of inhibition during the viral infection cycle, has been used to characterize the mode of action of some inhibitors of dengue viral entry (NITD Compound 6), viral replication (NITD-982) and early translation (NITD-2636), [47], [53]. The inhibitor is added at different time points during viral infection and monitored for expression of the viral proteins, replication of the genome or production of infectious progeny virions. […] Compound CND1203 was used for the time-of-addition assay, adding 25 µM at different time points (−2 hpi, 0 hpi, 0.5 hpi, 1 hpi, 2 hpi, 4 hpi) of the dengue virus infection (M.O.I. 5) in Huh-7.5. […] Aminothiazole-based compounds have previously been implicated in the inhibition of HCV replication by binding to an allosteric site on the viral polymerase. However, the structure of these active anti-HCV compounds differ from the 2-aminothiazole hit compounds reported in this study in terms of the substitutions on the scaffold. As a consequence, it is unlikely that our hit compounds interact with the viral polymerase.

For data set [8], the system named is DENV1 (Den1 BR/90) infection in Huh-7.5. Put plainly: image-based dengue HT/HCA, 10-pt dose-response hit confirmation, DENV1. The note with it: Dengue virus, DENV1, Huh7.5; Huh-7.5, M.O.I. 0.5, 96 hrs; read-out: EC50 DENV1. The class given is cell-based. As to the method: as §1, §2, §3, §4

Regarding `NC(c1csc(Nc2ncccn2)n1)c1ccccc1Cl` (centres unmarked) [CND1203], the EC50 in data set [1] came to 4.1 µM; in data set [2], 5 µM; in data set [6] it was 2300 nM; in data set [8], 1700 nM. Besides, the “antiviral activity against all four dengue serotypes” value in data set [3] is “strong antiviral activities against all four dengue serotypes; also recorded: strong antiviral activity against all 4 dengue serotypes”. This molecule gave a CC50 at 72 h in data set [4] of over 100 µM. The “formation of dengue virus plaques” value in data set [5] is “blocked the formation of dengue virus plaques”. In data set [7], the “inhibition of dengue infection in time-of-addition assay” value is reported as “none of the treatments inhibited dengue infection”.
